We go through two compounds from ChEMBL document CHEMBL1142472, “New ferrocenic pyrrolo[1,2-a]quinoxaline derivatives: synthesis, and in vitro antimalarial activity” (Bioorg Med Chem, 2008).

The source made the active and inactive calls. The calls are words filed in the database; no cut-off is given here.

For the test, the target named is T1, Histidine-rich protein PFHRP-II (Plasmodium falciparum) (UniProt P05227).
T1 sequence (whole entry): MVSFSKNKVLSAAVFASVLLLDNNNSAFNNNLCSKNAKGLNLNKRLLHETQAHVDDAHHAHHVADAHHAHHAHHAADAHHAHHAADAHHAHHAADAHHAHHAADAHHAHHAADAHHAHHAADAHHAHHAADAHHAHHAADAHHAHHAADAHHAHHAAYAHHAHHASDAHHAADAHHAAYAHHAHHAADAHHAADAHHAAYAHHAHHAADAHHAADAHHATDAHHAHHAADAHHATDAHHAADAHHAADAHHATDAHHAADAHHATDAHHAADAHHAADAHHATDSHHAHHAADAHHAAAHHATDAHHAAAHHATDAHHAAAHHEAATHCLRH
Kind of test: Inhibition of beta-hematin formation assessed as drug: hematin molar ratio causing inhibition of hem polymerization after 24 hrs by HPIA method. It counts as functional.

For the compound `C[C@@H]1CC[C@H]2[C@@H](C)C(=O)O[C@@H]3O[C@@]4(C)CC[C@@H]1[C@]32OO4`, the Ratio IC50 stood at 1.5.
On to `COc1cc(NS(=O)(=O)c2ccc(N)cc2)nc(OC)n1`, for which the result was inactive.
